# Assay results reported in patent US20170064988A1, “Delivery Systems for Natural High-Potency Sweetener Compositions, Methods for Their Formulation, and Uses” (The Coca-Cola Company, priority 2007, published 2017).
# Key:
# [1] = Dissolution of spray-dried amorphous rebaudioside A in water; type: physicochemical; conditions: room temperature, in 5 minutes
# Method: A solution of rebaudioside A (>97% pure by HPLC) was prepared in double distilled water (12.5 gm in 50 mL, 25% concentration) by stirring the mixture at 40° C. for 5 minutes. An amorphous rebaudioside form of A was formed by immediately using the clear solution for spray drying with the Lab-Plant spray drier SD-04 instrument (Lab-Plant Ltd., West Yorkshire, U.K.). The solution was fed through the feed pump into the nozzle atomizer which atomized it into a spray of droplets with the help of a constant flow of nitrogen/air. […] This dry powder (11-12 g, H2O 6.74%) was discharged continuously from the drying chamber and was collected in a bottle. The material was dissolved rapidly in water at room temperature up to a concentration of 35.0% (w/v) in 5 minutes.
# [2] = Rate of dissolution of rebaudioside A polymorphic and amorphous forms in water; type: physicochemical
Structure (SMILES),Concentration dissolved rapidly in water [1],Rate of dissolution in H2O at 25° C. (grade in words) [2],"Rate of dissolution in H2O at 25° C., amount dissolved in 60 minutes ([2]; in 60 minutes)","Rate of dissolution in H2O at 25° C., amount dissolved in 5 minutes [2]"
"C=C1C[C@@]23CC[C@H]4[C@@](C)(CCC[C@@]4(C)C(=O)O[C@@H]4O[C@H](CO)[C@@H](O)[C@H](O)[C@H]4O)[C@@H]2CC[C@]1(O[C@@H]1O[C@H](CO)[C@@H](O)[C@H](O[C@@H]2O[C@H](CO)[C@@H](O)[C@H](O)[C@H]2O)[C@H]1O[C@@H]1O[C@H](CO)[C@@H](O)[C@H](O)[C@H]1O)C3 [Example F, rebaudioside A]",≤ 35.0 % (w/v),–,–,–
"C=C1C[C@@]23CC[C@H]4[C@@](C)(CCC[C@@]4(C)C(=O)O[C@@H]4O[C@H](CO)[C@@H](O)[C@H](O)[C@H]4O)[C@@H]2CC[C@]1(O[C@@H]1O[C@H](CO)[C@@H](O)[C@H](O[C@@H]2O[C@H](CO)[C@@H](O)[C@H](O)[C@H]2O)[C@H]1O[C@@H]1O[C@H](CO)[C@@H](O)[C@H](O)[C@H]1O)C3 [Form 1, rebaudioside A]",–,Very low,(<0.2% in,–
"C=C1C[C@@]23CC[C@H]4[C@@](C)(CCC[C@@]4(C)C(=O)O[C@@H]4O[C@H](CO)[C@@H](O)[C@H](O)[C@H]4O)[C@@H]2CC[C@]1(O[C@@H]1O[C@H](CO)[C@@H](O)[C@H](O[C@@H]2O[C@H](CO)[C@@H](O)[C@H](O)[C@H]2O)[C@H]1O[C@@H]1O[C@H](CO)[C@@H](O)[C@H](O)[C@H]1O)C3 [Form 4, rebaudioside A]",–,High,–,(>35% in
"C=C1C[C@@]23CC[C@H]4[C@@](C)(CCC[C@@]4(C)C(=O)O[C@@H]4O[C@H](CO)[C@@H](O)[C@H](O)[C@H]4O)[C@@H]2CC[C@]1(O[C@@H]1O[C@H](CO)[C@@H](O)[C@H](O[C@@H]2O[C@H](CO)[C@@H](O)[C@H](O)[C@H]2O)[C@H]1O[C@@H]1O[C@H](CO)[C@@H](O)[C@H](O)[C@H]1O)C3 [Form 3, rebaudioside A]",–,High,–,(>30% in
"C=C1C[C@@]23CC[C@H]4[C@@](C)(CCC[C@@]4(C)C(=O)O[C@@H]4O[C@H](CO)[C@@H](O)[C@H](O)[C@H]4O)[C@@H]2CC[C@]1(O[C@@H]1O[C@H](CO)[C@@H](O)[C@H](O[C@@H]2O[C@H](CO)[C@@H](O)[C@H](O)[C@H]2O)[C@H]1O[C@@H]1O[C@H](CO)[C@@H](O)[C@H](O)[C@H]1O)C3 [Form 2, rebaudioside A]",–,Intermediate,–,(<30% in
